In ChEMBL document CHEMBL1201862, “PubChem BioAssay data set” (2004):
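Where inhibition never reached the appropriate level, the endpoint shown equals the highest concentration tested. Otherwise, values were interpolated linearly from a five-concentration, 48-hour dose response in 96-well plates. Abbreviation: GI50, concentration required for 50% inhibition of growth.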 The source made the active and inactive calls. Cut-off read from the data, not from the text of the source: active = GI50 up to about 1.1 µM and inactive = higher.

Columns and labels:
Assay in all cases: NCI-60 cell line screen, 48 h
RPMI-8226 = test system: RPMI-8226
SF-295 = test system: SF-295
HOP-62 = test system: HOP-62
UACC-62 = test system: UACC-62
A498 = test system: A498
OVCAR-3 = test system: OVCAR-3
BT-549 = test system: BT-549
COLO 205 = test system: COLO 205
M14 = test system: M14
K562 = test system: K562
HL-60 = test system: HL-60
ACHN = test system: ACHN
NCI-H23 = test system: NCI-H23
SW-620 = test system: SW-620
DU-145 = test system: DU-145
SNB-19 = test system: SNB-19
KM12 = test system: KM12
MCF7 = test system: MCF7
OVCAR-4 = test system: OVCAR-4
SK-MEL-2 = test system: SK-MEL-2
Hs-578T = test system: Hs-578T
A549 = test system: A549
SK-OV-3 = test system: SK-OV-3
HOP-92 = test system: HOP-92
SN12C = test system: SN12C
MOLT-4 = test system: MOLT-4
IGROV-1 = test system: IGROV-1
786-0 = test system: 786-0
UO-31 = test system: UO-31
NCI-H226 = test system: NCI-H226
U-251 = test system: U-251
CAKI-1 = test system: CAKI-1
SF-268 = test system: SF-268
MDA-MB-435 = test system: MDA-MB-435
HCT-15 = test system: HCT-15
MDA-MB-231 = test system: MDA-MB-231
SF-539 = test system: SF-539
HCT-116 = test system: HCT-116
LOX IMVI = test system: LOX IMVI
SK-MEL-5 = test system: SK-MEL-5
PC-3 = test system: PC-3
SNB-75 = test system: SNB-75
RXF 393 = test system: RXF 393
UACC-257 = test system: UACC-257
OVCAR-5 = test system: OVCAR-5
T47D = test system: T47D
SK-MEL-28 = test system: SK-MEL-28
NCI-H460 = test system: NCI-H460
CCRF-CEM = test system: CCRF-CEM
HCC 2998 = test system: HCC 2998
SR = test system: SR
TK-10 = test system: TK-10
OVCAR-8 = test system: OVCAR-8
EKVX = test system: EKVX
NCI-H522 = test system: NCI-H522
NCI/ADR-RES = test system: NCI/ADR-RES
HT-29 = test system: HT-29
MDA-N = test system: MDA-N
Malme-3M = test system: Malme-3M

For `COCc1nc(N)nc(N2N=C(C)CC2(C)C)n1`, the GI50 (RPMI-8226) was > 100 µM (inactive), the GI50 (SF-295) was > 100 µM (inactive) and the GI50 (HOP-62) was > 100 µM (inactive). For the same compound, the GI50 (UACC-62) was > 100 µM (inactive), the GI50 (A498) was > 100 µM (inactive) and the GI50 (OVCAR-3) was > 100 µM (inactive). The GI50 (BT-549) was > 100 µM (inactive), the GI50 (COLO 205) was > 100 µM (inactive) and the GI50 (M14) was > 100 µM (inactive). For the same compound, the GI50 (K562) was > 100 µM (inactive), the GI50 (HL-60) was > 100 µM (inactive) and the GI50 (ACHN) was > 100 µM (inactive). For the same compound, the GI50 (NCI-H23) was > 100 µM (inactive), the GI50 (SW-620) was > 100 µM (inactive) and the GI50 (DU-145) was > 100 µM (inactive). The GI50 (SNB-19) was > 100 µM (inactive), the GI50 (KM12) was > 100 µM (inactive) and the GI50 (MCF7) was > 100 µM (inactive). For the same compound, the GI50 (OVCAR-4) was > 100 µM (inactive), the GI50 (SK-MEL-2) was > 100 µM (inactive) and the GI50 (Hs-578T) was > 100 µM (inactive). For the same compound, the GI50 (A549) was > 100 µM (inactive), the GI50 (SK-OV-3) was > 100 µM (inactive) and the GI50 (HOP-92) was > 100 µM (inactive). The GI50 (SN12C) was > 100 µM (inactive), the GI50 (MOLT-4) was > 100 µM (inactive) and the GI50 (IGROV-1) was > 100 µM (inactive). The GI50 (786-0) was > 100 µM (inactive), the GI50 (UO-31) was > 100 µM (inactive) and the GI50 (NCI-H226) was > 100 µM (inactive). For the same compound, the GI50 (U-251) was > 100 µM (inactive), the GI50 (CAKI-1) was > 100 µM (inactive) and the GI50 (SF-268) was > 100 µM (inactive). The GI50 (MDA-MB-435) was > 100 µM (inactive), the GI50 (HCT-15) was greater than 100 µM and the GI50 (MDA-MB-231) was > 100 µM (inactive). The GI50 (SF-539) was > 100 µM (inactive), the GI50 (HCT-116) was > 100 µM (inactive) and the GI50 (LOX IMVI) was > 100 µM (inactive). The GI50 (SK-MEL-5) was > 100 µM (inactive), the GI50 (PC-3) was > 100 µM (inactive) and the GI50 (SNB-75) was > 100 µM (inactive). For the same compound, the GI50 (RXF 393) was > 100 µM (inactive), the GI50 (UACC-257) was > 100 µM (inactive) and the GI50 (OVCAR-5) was > 100 µM (inactive). The GI50 (T47D) was > 100 µM (inactive), the GI50 (SK-MEL-28) was > 100 µM (inactive) and the GI50 (NCI-H460) was > 100 µM (inactive). For the same compound, the GI50 (CCRF-CEM) was > 100 µM (inactive), the GI50 (HCC 2998) was > 100 µM (inactive) and the GI50 (SR) was > 100 µM (inactive). The GI50 (TK-10) was > 100 µM (inactive), the GI50 (OVCAR-8) was > 100 µM (inactive) and the GI50 (EKVX) was > 100 µM (inactive). The GI50 (NCI-H522) was > 100 µM (inactive), the GI50 (NCI/ADR-RES) was > 100 µM (inactive) and the GI50 (HT-29) was > 100 µM (inactive).
In the case of `O=C1/C(=C/c2ccc(Br)s2)NC(=S)N1c1ccccc1`, the GI50 (RPMI-8226) is reported as 22.5 µM (inactive), the GI50 (SF-295) is reported as 43.6 µM (inactive) and the GI50 (HOP-62) is reported as 39.1 µM (inactive). The GI50 (UACC-62) was 47.2 µM (inactive), the GI50 (A498) was 51.1 µM (inactive) and the GI50 (OVCAR-3) was 62.4 µM (inactive). For the same compound, the GI50 (BT-549) was 82.6 µM (inactive), the GI50 (COLO 205) was 84.9 µM (inactive) and the GI50 (K562) was 56.8 µM (inactive). The GI50 (HL-60) was > 100 µM (inactive), the GI50 (ACHN) was 32.1 µM (inactive) and the GI50 (NCI-H23) was > 100 µM (inactive). The GI50 (SW-620) was > 100 µM (inactive), the GI50 (DU-145) was > 100 µM (inactive) and the GI50 (SNB-19) was 26.9 µM (inactive). The GI50 (KM12) was > 100 µM (inactive), the GI50 (MCF7) was 34.5 µM (inactive) and the GI50 (OVCAR-4) was 27 µM (inactive). The GI50 (SK-MEL-2) was > 100 µM (inactive), the GI50 (Hs-578T) was 38.6 µM (inactive) and the GI50 (SK-OV-3) was 45.6 µM (inactive). The GI50 (HOP-92) was 25.7 µM (inactive), the GI50 (SN12C) was 74.3 µM (inactive) and the GI50 (MOLT-4) was > 100 µM (inactive). For the same compound, the GI50 (IGROV-1) was 69.3 µM (inactive), the GI50 (786-0) was 40.8 µM (inactive) and the GI50 (UO-31) was > 100 µM (inactive). The GI50 (NCI-H226) was > 100 µM (inactive), the GI50 (U-251) was 36.6 µM (inactive) and the GI50 (CAKI-1) was 44.5 µM (inactive). For the same compound, the GI50 (SF-268) was > 100 µM (inactive), the GI50 (MDA-MB-435) was 86.3 µM (inactive) and the GI50 (HCT-15) was 80.5 µM. For the same compound, the GI50 (MDA-MB-231) was 34.3 µM (inactive), the GI50 (HCT-116) was 44.4 µM (inactive) and the GI50 (LOX IMVI) was > 100 µM (inactive). The GI50 (SK-MEL-5) was 63.2 µM (inactive), the GI50 (PC-3) was > 100 µM (inactive) and the GI50 (RXF 393) was 30.1 µM (inactive). For the same compound, the GI50 (UACC-257) was 65.6 µM (inactive), the GI50 (OVCAR-5) was > 100 µM (inactive) and the GI50 (MDA-N) was > 100 µM (inactive). The GI50 (SK-MEL-28) was > 100 µM (inactive), the GI50 (NCI-H460) was 51.5 µM (inactive) and the GI50 (CCRF-CEM) was > 100 µM (inactive). The GI50 (HCC 2998) was > 100 µM (inactive), the GI50 (SR) was > 100 µM (inactive) and the GI50 (TK-10) was > 100 µM (inactive). The GI50 (EKVX) was > 100 µM (inactive), the GI50 (NCI-H522) was 46.7 µM (inactive) and the GI50 (Malme-3M) was 68.1 µM (inactive). For the same compound, the GI50 (HT-29) was > 100 µM (inactive).
For `CC(C)(C)c1ccc(OC(=O)Nc2ccc(O)c(C(=O)O)c2)cc1`, the GI50 (RPMI-8226) was > 100 µM (inactive), the GI50 (SF-295) was > 100 µM (inactive) and the GI50 (HOP-62) was > 100 µM (inactive). The GI50 (UACC-62) was > 100 µM (inactive), the GI50 (A498) was > 100 µM (inactive) and the GI50 (OVCAR-3) was > 100 µM (inactive). For the same compound, the GI50 (BT-549) was > 100 µM (inactive), the GI50 (COLO 205) was > 100 µM (inactive) and the GI50 (M14) was > 100 µM (inactive). The GI50 (K562) was > 100 µM (inactive), the GI50 (HL-60) was 30.7 µM (inactive) and the GI50 (ACHN) was > 100 µM (inactive). The GI50 (NCI-H23) was > 100 µM (inactive), the GI50 (SW-620) was > 100 µM (inactive) and the GI50 (DU-145) was > 100 µM (inactive). The GI50 (SNB-19) was > 100 µM (inactive), the GI50 (KM12) was > 100 µM (inactive) and the GI50 (MCF7) was > 100 µM (inactive). For the same compound, the GI50 (OVCAR-4) was > 100 µM (inactive), the GI50 (SK-MEL-2) was > 100 µM (inactive) and the GI50 (Hs-578T) was > 100 µM (inactive). The GI50 (A549) was > 100 µM (inactive), the GI50 (SK-OV-3) was > 100 µM (inactive) and the GI50 (HOP-92) was > 100 µM (inactive). For the same compound, the GI50 (SN12C) was > 100 µM (inactive), the GI50 (MOLT-4) was > 100 µM (inactive) and the GI50 (IGROV-1) was > 100 µM (inactive). For the same compound, the GI50 (786-0) was > 100 µM (inactive), the GI50 (NCI-H226) was > 100 µM (inactive) and the GI50 (U-251) was > 100 µM (inactive). The GI50 (CAKI-1) was > 100 µM (inactive), the GI50 (SF-268) was > 100 µM (inactive) and the GI50 (MDA-MB-435) was > 100 µM (inactive). The GI50 (HCT-15) was greater than 100 µM, the GI50 (MDA-MB-231) was > 100 µM (inactive) and the GI50 (SF-539) was > 100 µM (inactive). The GI50 (HCT-116) was > 100 µM (inactive), the GI50 (LOX IMVI) was > 100 µM (inactive) and the GI50 (SK-MEL-5) was > 100 µM (inactive). The GI50 (PC-3) was > 100 µM (inactive), the GI50 (SNB-75) was > 100 µM (inactive) and the GI50 (RXF 393) was > 100 µM (inactive). For the same compound, the GI50 (UACC-257) was > 100 µM (inactive), the GI50 (OVCAR-5) was > 100 µM (inactive) and the GI50 (T47D) was > 100 µM (inactive). For the same compound, the GI50 (SK-MEL-28) was > 100 µM (inactive), the GI50 (NCI-H460) was > 100 µM (inactive) and the GI50 (CCRF-CEM) was > 100 µM (inactive). The GI50 (SR) was > 100 µM (inactive), the GI50 (TK-10) was > 100 µM (inactive) and the GI50 (OVCAR-8) was > 100 µM (inactive). The GI50 (EKVX) was > 100 µM (inactive), the GI50 (NCI-H522) was > 100 µM (inactive) and the GI50 (NCI/ADR-RES) was > 100 µM (inactive). For the same compound, the GI50 (Malme-3M) was > 100 µM (inactive) and the GI50 (HT-29) was > 100 µM (inactive).
